# In patent publication US20210122730A1, “GLUCOCORTICOID RECEPTOR MODULATORS” (ORIC Pharmaceuticals, Inc., priority 2017, published 2021):
# pIC50: −log10 of the molar value.
# Assays:
# CYP2C8 = target: T1, CYP2C8 (Homo sapiens, UniProt P10632); assay: CYP Inhibition Assay (CYP2C8, human liver microsomes, paclitaxel substrate); format: in vitro ADME; settings: pH 7.4; pooled human liver microsomes 0.1 mg/mL, probe substrate paclitaxel
# T1 construct: Pooled human microsomes were obtained from Sekisui XenoTech, KS; tissue Sekisui XenoTech, KS; host or cells: pooled human liver microsomes
# T1 sequence (P10632 1-490): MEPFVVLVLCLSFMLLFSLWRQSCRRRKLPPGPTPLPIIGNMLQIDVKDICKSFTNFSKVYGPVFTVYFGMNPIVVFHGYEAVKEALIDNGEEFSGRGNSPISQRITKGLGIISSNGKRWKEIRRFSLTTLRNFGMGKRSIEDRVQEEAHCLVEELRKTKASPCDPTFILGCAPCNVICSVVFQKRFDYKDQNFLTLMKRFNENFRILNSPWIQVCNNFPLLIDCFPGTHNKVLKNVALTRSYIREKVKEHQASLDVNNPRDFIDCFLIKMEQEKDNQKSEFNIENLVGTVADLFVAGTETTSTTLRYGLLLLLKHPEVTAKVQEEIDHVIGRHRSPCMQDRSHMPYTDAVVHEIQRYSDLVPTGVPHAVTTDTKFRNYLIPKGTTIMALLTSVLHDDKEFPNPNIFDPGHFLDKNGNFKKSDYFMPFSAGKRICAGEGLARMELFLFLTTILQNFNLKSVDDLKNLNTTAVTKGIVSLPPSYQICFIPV
# Procedure, shortened: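 CYP2C8 activity read as 6α-hydroxypaclitaxel formation by LC-MS/MS, with % inhibition versus vehicle control. Reactions ran 5 min at 37° C, pH 7.4 phosphate buffer, 0.1 mg/mL pooled human liver microsomes, 1 mM NADPH, duplicate wells.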
# GR = target: T2, GR (Homo sapiens, UniProt P04150); assay: In Vitro GR Luciferase Reporter Assay (antagonist mode, CHO-K1-GR-MMTV-Luc reporter cells); format: cell-based
# T2 construct: expressed in transfected cells; host or cells: CHO-K1
# T2 sequence (P04150 1-777): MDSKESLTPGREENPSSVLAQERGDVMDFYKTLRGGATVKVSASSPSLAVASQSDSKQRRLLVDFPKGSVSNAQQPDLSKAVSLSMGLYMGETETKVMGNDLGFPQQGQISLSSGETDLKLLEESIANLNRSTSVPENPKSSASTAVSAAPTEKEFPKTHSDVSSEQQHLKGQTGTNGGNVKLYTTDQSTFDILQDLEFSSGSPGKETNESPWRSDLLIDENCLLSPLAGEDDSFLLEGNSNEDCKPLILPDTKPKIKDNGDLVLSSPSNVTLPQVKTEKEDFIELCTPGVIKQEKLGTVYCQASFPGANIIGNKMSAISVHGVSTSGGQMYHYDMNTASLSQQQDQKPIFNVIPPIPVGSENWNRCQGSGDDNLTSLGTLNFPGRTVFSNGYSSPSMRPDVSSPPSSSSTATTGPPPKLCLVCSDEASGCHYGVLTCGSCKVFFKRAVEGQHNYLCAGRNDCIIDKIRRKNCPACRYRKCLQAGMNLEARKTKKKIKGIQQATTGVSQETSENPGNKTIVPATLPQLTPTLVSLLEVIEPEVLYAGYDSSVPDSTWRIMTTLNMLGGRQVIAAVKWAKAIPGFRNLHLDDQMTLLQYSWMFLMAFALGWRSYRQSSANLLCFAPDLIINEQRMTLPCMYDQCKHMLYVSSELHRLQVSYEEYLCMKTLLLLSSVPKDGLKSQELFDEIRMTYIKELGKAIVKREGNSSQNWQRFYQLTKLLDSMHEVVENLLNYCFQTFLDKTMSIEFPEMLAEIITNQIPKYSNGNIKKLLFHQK
# Procedure, shortened: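 Antagonist mode: compounds (8 serial 1:5 dilutions) added to GR-MMTV-luciferase CHO-K1 reporter cells co-exposed to 10 nM dexamethasone final, in phenol red-free DMEM plus 10% CSS. After roughly 18-24 h at 37° C, OneGlo luminescence read and IC50 calculated.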
# [1] = antagonist mode, 10 nM Dexamethasone
inhibition at 5 min (CYP2C8) [%],pIC50 (GR; [1]),"pIC50 (GR; antagonist assay with 10 nM Dexamethasone, 18-24 hours)",SMILES
25 to 50,≥ 7.00,,"CO[C@]1(C)C[C@H](N([C@H]2CCC3=Cc4c(cnn4-c4ccc(F)cc4)C[C@]3(C(=O)c3cc(F)ccn3)C2)S(=O)(=O)c2ccn(C)n2)C1 [Example 371, N-((4aS,6S)-1-(4-fluorophenyl)-4a-(4-fluoropicolinoyl)-4,4a,5,6,7,8-hexahydro-1H-benzo[f]indazol-6-yl)-N-((1s,3R)-3-methoxy-3-methylcyclobutyl)-1-methyl-1H-pyrazole-3-sulfonamide]"
50 to 75,≥ 7.00,,"Cn1ccc(S(=O)(=O)N(CC2CC2)[C@H]2CCC3=Cc4c(cnn4-c4ccc(F)cc4)C[C@]3(C(=O)c3cc(Cl)ccn3)C2)n1 [Example 245, N-((4aS,6S)-4a-(4-chloropicolinoyl)-1-(4-fluorophenyl)-4,4a,5,6,7,8-hexahydro-1H-benzo[f]indazol-6-yl)-N-(cyclopropylmethyl)-1-methyl-1H-pyrazole-3-sulfonamide]"
50 to 75,≥ 7.00,,"CC(C)N([C@H]1CCC2=Cc3c(cnn3-c3ccc(F)cc3)C[C@]2(C(=O)c2cc(F)ccn2)C1)S(=O)(=O)c1cn(C)nn1 [Example 295, N-((4aS,6S)-1-(4-fluorophenyl)-4a-(4-fluoropicolinoyl)-4,4a,5,6,7,8-hexahydro-1H-benzo[f]indazol-6-yl)-N-isopropyl-1-methyl-1H-1,2,3-triazole-4-sulfonamide]"
25 to 50,≥ 7.00,,"Cn1ccc(S(=O)(=O)N(CC(F)F)[C@H]2CCC3=Cc4c(cnn4-c4ccc(F)cc4)C[C@]3(C(=O)c3cc(C(F)(F)F)ccn3)C2)n1 [Example 313, N-(2,2-difluoroethyl)-N-((4aS,6S)-1-(4-fluorophenyl)-4a-(4-(trifluoromethyl)picolinoyl)-4,4a,5,6,7,8-hexahydro-1H-benzo[f]indazol-6-yl)-1-methyl-1H-pyrazole-3-sulfonamide]"
25 to 50,≥ 7.00,,"Cn1cc(S(=O)(=O)N(CC(F)(F)F)[C@H]2CCC3=Cc4c(cnn4-c4ccc(F)cc4)C[C@]3(C(=O)c3cc(Cl)ccn3)C2)cn1 [Example 280, N-((4aS,6S)-4a-(4-chloropicolinoyl)-1-(4-fluorophenyl)-4,4a,5,6,7,8-hexahydro-1H-benzo[f]indazol-6-yl)-1-methyl-N-(2,2,2-trifluoroethyl)-1H-pyrazole-4-sulfonamide]"
75 to 90,≥ 7.00,,"CN([C@H]1CCC2=Cc3c(cnn3-c3ccc(F)cc3)C[C@]2(C(=O)c2ncc(C3CC3)s2)C1)S(=O)(=O)c1cnn(C)c1 [Example 134, N-((4aS,6S)-4a-(5-cyclopropylthiazole-2-carbonyl)-1-(4-fluorophenyl)-4,4a,5,6,7,8-hexahydro-1H-benzo[f]indazol-6-yl)-N,1-dimethyl-1H-pyrazole-4-sulfonamide]"
50 to 75,≥ 7.00,,"Cn1ccc(S(=O)(=O)N(CC2(O)CC2)[C@H]2CCC3=Cc4c(cnn4-c4ccc(F)cc4)C[C@]3(C(=O)c3ncc(C(F)(F)F)s3)C2)n1 [Example 251, N-((4aS,6S)-1-(4-fluorophenyl)-4a-(5-(trifluoromethyl)thiazole-2-carbonyl)-4,4a,5,6,7,8-hexahydro-1H-benzo[f]indazol-6-yl)-N-((1-hydroxycyclopropyl)methyl)-1-methyl-1H-pyrazole-3-sulfonamide]"
50 to 75,≥ 7.00,,"O=C(c1cc(F)ccn1)[C@]12Cc3cnn(-c4ccc(F)cc4)c3C=C1CC[C@H](N(CC1(O)CC1)S(=O)(=O)c1ccc(F)cc1)C2 [Example 254, 4-fluoro-N-((4aS,6S)-1-(4-fluorophenyl)-4a-(4-fluoropicolinoyl)-4,4a,5,6,7,8-hexahydro-1H-benzo[f]indazol-6-yl)-N-((1-hydroxycyclopropyl)methyl) benzenesulfonamide]"
25 to 50,≥ 7.00,,"Cn1cc(S(=O)(=O)N(CC(C)(C)O)[C@H]2CCC3=Cc4c(cnn4-c4ccc(F)cc4)C[C@]3(C(=O)c3cc(Cl)ccn3)C2)cn1 [Example 246, N-((4aS,6S)-4a-(4-chloropicolinoyl)-1-(4-fluorophenyl)-4,4a,5,6,7,8-hexahydro-1H-benzo[f]indazol-6-yl)-N-(2-hydroxy-2-methylpropyl)-1-methyl-1H-pyrazole-4-sulfonamide]"
≤ 25,,≥ 7.00,"O=C(c1ccc(C(F)(F)F)cn1)[C@]12Cc3cnn(-c4ccc(F)cc4)c3C=C1CC[C@H](S(=O)(=O)c1ccc(F)cc1)C2 [Example 55, ((4aS,6S)-1-(4-fluorophenyl)-6-((4-fluorophenyl)sulfonyl)-1,4,5,6,7,8-hexahydro-4aH-benzo[f]indazol-4a-yl)(5-(trifluoromethyl)pyridin-2-yl)methanone]"
50 to 75,≥ 7.00,,"Cn1ccc(S(=O)(=O)N(C2CC(F)(F)C2)[C@H]2CCC3=Cc4c(cnn4-c4ccc(F)cc4)C[C@]3(C(=O)c3cc(F)ccn3)C2)n1 [Example 267, N-(3,3-difluorocyclobutyl)-N-((4aS,6S)-1-(4-fluorophenyl)-4a-(4-fluoropicolinoyl)-4,4a,5,6,7,8-hexahydro-1H-benzo[f]indazol-6-yl)-1-methyl-1H-pyrazole-3-sulfonamide]"
75 to 90,≥ 7.00,,"Cn1ccc(S(=O)(=O)N(CC(F)F)[C@H]2CCC3=Cc4c(cnn4-c4ccc(F)cc4)C[C@]3(C(=O)c3cc(F)ccn3)C2)n1 [Example 338, N-(2,2-difluoroethyl)-N-((4aS,6S)-1-(4-fluorophenyl)-4a-(4-fluoropicolinoyl)-4,4a,5,6,7,8-hexahydro-1H-benzo[f]indazol-6-yl)-1-methyl-1H-pyrazole-3-sulfonamide]"
25 to 50,≥ 7.00,,"Cn1cnc(S(=O)(=O)N(CC(F)F)[C@H]2CCC3=Cc4c(cnn4-c4ccc(F)cc4)C[C@]3(C(=O)c3cc(C(F)(F)F)ccn3)C2)n1 [Example 330, N-(2,2-difluoroethyl)-N-((4aS,6S)-1-(4-fluorophenyl)-4a-(4-(trifluoromethyl)picolinoyl)-4,4a,5,6,7,8-hexahydro-1H-benzo[f]indazol-6-yl)-1-methyl-1H-1,2,4-triazole-3-sulfonamide]"
25 to 50,≥ 7.00,,"Cn1cc(S(=O)(=O)N(C2CC2)[C@H]2CCC3=Cc4c(cnn4-c4ccc(F)cc4)C[C@]3(C(=O)c3ncc(C(F)(F)F)s3)C2)nn1 [Example 219, N-cyclopropyl-N-((4aS,6S)-1-(4-fluorophenyl)-4a-(5 (trifluoromethyl)thiazole-2-carbonyl)-4,4a,5,6,7,8-hexahydro-1H-benzo[f]indazol-6-yl)-1-methyl-1H-1,2,3-triazole-4-sulfonamide]"
50 to 75,≥ 7.00,,"CC(C)N([C@H]1CCC2=Cc3c(cnn3-c3ccc(F)cc3)C[C@]2(C(=O)c2cc(C(F)(F)F)ccn2)C1)S(=O)(=O)c1cnn(C)c1 [Example 193, N-((4aS,6S)-1-(4-fluorophenyl)-4a-(4-(trifluoromethyl)picolinoyl)-4,4a,5,6,7,8-hexahydro-1H-benzo[f]indazol-6-yl)-N-isopropyl-1-methyl-1H-pyrazole-4-sulfonamide]"
50 to 75,≥ 7.00,,"Cn1cc(S(=O)(=O)N(CC(F)(F)F)[C@H]2CCC3=Cc4c(cnn4-c4ccc(F)cc4)C[C@]3(C(=O)c3cc(F)ccn3)C2)cn1 [Example 260, N-((4aS,6S)-1-(4-fluorophenyl)-4a-(4-fluoropicolinoyl)-4,4a,5,6,7,8-hexahydro-1H-benzo[f]indazol-6-yl)-1-methyl-N-(2,2,2-trifluoroethyl)-1H-pyrazole-4-sulfonamide]"
